What was measured:
Assay type in all cases: in vivo
[1] = tested on: GMPPA KO (GMPPA Human / Y47DA9.1 C. elegans knockout); assay: C. elegans model growth assay (worm body area), GMPPA KO line
Protocol: (§1) Five lines of GMPPA disorder models were generated in C. elegans using CRISPR/Cas9 gene editing: • One line GMPPA Human (Y47DA9.1 C. elegans) knockout (GMPPA KO) • Two lines T292P Human (S272P C. elegans) point mutation (T292P PM1, T292P PM2) • Two lines R318W Human (R298W C. elegans) point mutation (R318W PM1, R318W PM2)
(§2) These animals were tested for growth delays, temperature sensitivity, and mitotic stress sensitivity, with the dual goals of validating C. elegans as a model for studying GMPPA-CDG and identifying a robust phenotype that could be leveraged in future screening of novel pharmaceuticals for the treatment of the deleterious effects of this mutation.
(§3) To assess the effect of Compounds 1-6 on mitigating the growth deficit of C. elegans carrying a mutation in the GMPPA gene, the growth of the five mutant GMPPA C. elegans lines that were either untreated or treated with one of 6 different drugs (Compounds 1-6), at different concentrations, was measured. C. elegans were allowed to develop to the LI larval stage in the liquid solution. LI C. elegans were then placed onto plates seeded with inactivated OP50 containing the appropriate drug treatment in 0.1% DMSO, and were kept at 20° C. throughout the assay. About thirty 30 C. elegans synchronized at the LI stage of each genotype were placed onto 3 replicate plates containing the appropriate drug treatment and allowed to grow to adulthood at 20° C. Plates were imaged at the same time each day using the WormLab system (MBF Bioscience). Worm area was measured using the WormLab software. Animal sizes of each treatment were compared to sizes of untreated N2 control animals, as well as untreated animals of the same genotype on each day using ANOVA, followed by post-hoc t-tests corrected for multiple comparisons using the Benjamini-Hochberg correction procedure. Analyses were performed and plotted using custom R code.
(§4) To study the effects of the different drugs on growth, the size (body area) of animals treated with each concentration of each drug was compared to the size (body area) of untreated animals of the same genotype on the same day.

[2] = tested on: R318W PM 1 (R318W Human / R298W C. elegans point mutation); assay: C. elegans model growth assay (worm body area), R318W PM 1 line
Protocol: as §1, §2, §3, §4

[3] = tested on: R318W PM 2 (R318W Human / R298W C. elegans point mutation); assay: C. elegans model growth assay (worm body area), R318W PM 2 line
Protocol: as §1, §2, §3, §4

[4] = tested on: T292P PM 1 (T292P Human / S272P C. elegans point mutation); assay: C. elegans model growth assay (worm body area), T292P PM 1 line
Protocol: as §1, §2
as §3, with “code. […]” for “code.”

[5] = tested on: T292P PM 2 (T292P Human / S272P C. elegans point mutation); assay: C. elegans model growth assay (worm body area), T292P PM 2 line; details: 200 nM, Young Adult
Protocol: as §1, §2
To assess the effect of Compounds 1-6 on mitigating the growth deficit of C. elegans carrying a mutation in the GMPPA gene, the growth of the five mutant GMPPA C. elegans lines that were either untreated or treated with one of 6 different drugs (Compounds 1-6), at different concentrations, was measured. C. elegans were allowed to develop to the LI larval stage in the liquid solution. LI C. elegans were then placed onto plates seeded with inactivated OP50 containing the appropriate drug treatment in 0.1% DMSO, and were kept at 20° C. throughout the assay. […] Worm area was measured using the WormLab software. […]

[6] = 200 μM (third concentration group), Adult (day 4)
[7] = 20 μM (as printed, second 20 μM group, last in table), Adult (day 5)
[8] = 20 μM (as printed, second 20 μM group, last in table), Young Adult
[9] = 200 μM (third concentration group), Adult (day 5)
[10] = 200 μM (third concentration group), Young Adult

SMILES	% Increase size (compared to untreated) ([1]; 2 μM, Adult (day 4)) [%]	% Increase size (compared to untreated) ([2]; 20 nM, Adult (day 5)) [%]	% Increase size (compared to untreated) ([2]; 20 nM, L3) [%]	% Increase size (compared to untreated) ([2]; 20 nM, Young Adult) [%]	% Increase size (compared to untreated) ([2]; 200 nM, Adult (day 5)) [%]	% Increase size (compared to untreated) ([2]; 200 nM, Young Adult) [%]	% Increase size (compared to untreated) ([2]; 2 μM, Adult (day 5)) [%]	% Increase size (compared to untreated) ([2]; 2 μM, Young Adult) [%]	% Increase size (compared to untreated) ([2]; 20 μM, L3) [%]	% Increase size (compared to untreated) [1, 6] [%]	% Increase size (compared to untreated) ([3]; 2 μM, Adult (day 5)) [%]	% Increase size (compared to untreated) ([3]; 2 μM, Young Adult) [%]	% Increase size (compared to untreated) [2, 7] [%]	% Increase size (compared to untreated) [2, 8] [%]	% Increase size (compared to untreated) ([2]; 20 μM, Adult (day 5)) [%]	% Increase size (compared to untreated) [2, 9] [%]	% Increase size (compared to untreated) [2, 10] [%]	% Increase size (compared to untreated) ([3]; 2 μM, Adult (day 4)) [%]	% Increase size (compared to untreated) ([3]; 20 μM, Young Adult) [%]	% Increase size (compared to untreated) ([2]; 20 μM, Young Adult) [%]	other results
CC(C)(C)NC(=O)[C@H]1CC[C@H]2[C@@H]3CC[C@H]4NC(=O)C=C[C@]4(C)[C@H]3CC[C@]12C [Compound 1, finasteride]	6.47	8.79	12.77	11.59	7.28	16.92	9.08	12.70	10.73	–	–	–	–	–	–	–	–	–	–	–	% Increase size (compared to untreated) ([2]; 200 nM, L3): 13.73%
CC(O)(CS(=O)(=O)c1ccc(F)cc1)C(=O)Nc1ccc(C#N)c(C(F)(F)F)c1 (centres unmarked) [Compound 2, N-(4-cyano-3-(trifluoromethyl)phenyl)-3-((4-fluorophenyl)sulfonyl)-2-hydroxy-2-methylpropanamide]	–	–	–	–	–	–	13.14	15.14	–	10.83	9.82	20.08	12.37	9.40	6.98	13.42	15.18	–	–	–	% Increase size (compared to untreated) ([1]; 20 μM, Adult (day 4)): 9.60%; % Increase size (compared to untreated) [4, 10]: 16.12%
CCn1cc(C(=O)O)c(=O)c2cnc(N3CCNCC3)nc21 [Compound 3, 8-Ethyl-5,8-dihydro-5-oxo-2-(1-piperazinyl)pyrido (2,3-d)pyrimidine-6-carboxylic acid]	12.37	–	–	–	–	–	8.12	18.05	14.96	7.92	–	–	12.27	15.84	12.83	10.51	14.43	11.20	14.52	9.03	% Increase size (compared to untreated) ([1]; 2 μM, Young Adult): 12.64%; % Increase size (compared to untreated) ([3]; 20 μM, Adult (day 5)): 5.57%; % Increase size (compared to untreated) ([3]; 20 μM, L3): 11.65%; % Increase size (compared to untreated) ([3]; 200 μM, Adult (day 4)): 8.02%; % Increase size (compared to untreated) ([3]; 200 μM, Adult (day 5)): 5.96%; % Increase size (compared to untreated) ([4]; 2 μM, Adult (day 5)): 14.96%
Cc1nc2n(c(=O)c1CCN1CCC(c3noc4cc(F)ccc34)CC1)CCCC2O (centres unmarked) [Compound 4, 3-(2-(4-(6-fluorobenzo[d]isoxazol-3-yl)piperidin-1-yl)ethyl)-9-hydroxy-2-methyl-6,7,8,9-tetrahydro-4H-pyrido[1,2-a]pyrimidin-4-one]	6.86	10.32	–	11.38	11.03	–	9.47	14.09	–	–	6.08	–	–	–	10.72	–	–	–	–	–	% Increase size (compared to untreated) ([1]; 20 nM, Adult (day 4)): 7.18%; % Increase size (compared to untreated) ([3]; 200 nM, Adult (day 4)): 8.35%; % Increase size (compared to untreated) ([4]; 20 μM, Adult (day 5)): 6.70%
C[C@H](NCc1ccc(OCc2cccc(F)c2)cc1)C(N)=O [Compound 5, (S)-2-((4-((3-fluorobenzyl)oxy)benzyl)amino) propanamide]	–	11.09	–	–	9.35	–	9.47	16.21	–	–	5.51	–	–	–	–	–	–	–	–	–	% Increase size (compared to untreated) ([2]; 2 μM, L3): 16.41%
Cc1ccc2c([nH]c(=O)c3c(=O)cc(C(=O)OCCC(C)C)oc32)c1C [Compound 6, 3-methylbutyl 7,8-dimethyl-4,5-dioxo-6H-pyrano[3,2-c]quinoline-2-carboxylate]	6.58	11.15	18.59	27.26	12.15	18.38	7.41	16.84	13.93	–	–	18.25	–	–	10.80	–	–	8.97	22.20	18.41	% Increase size (compared to untreated) ([1]; 20 μM, Young Adult): 13.22%; % Increase size (compared to untreated) ([3]; 20 nM, Young Adult): 20.62%; % Increase size (compared to untreated) ([3]; 200 nM, Adult (day 4)): 7.96%; % Increase size (compared to untreated) ([3]; 200 nM, Young Adult): 25.23%; % Increase size (compared to untreated) [5]: 13.63%

From patent US20240398835A1, “METHODS FOR TREATING CONGENITAL DISORDERS OF GLYCOSYLATION” (priority 2023, published 2024)
